Key:
Experiment in all cases: relative viability (nuclei count vs DMSO), 5 days (fraction); higher = more cells survive
[1] = compound: Nc1nc(Nc2ccc3c(c2)CC[C@@H](N2CCCC2)CC3)nn1-c1cc2c(nn1)-c1ccccc1CCC2 [Bemcentinib] + N=C(N)NC(=N)NCCc1ccccc1 [Phenformin] (partner 250 µM)
Outline: (§1)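 Lung cancer cell lines in 1536-well plates were dosed by pin tool the day after seeding, either with one drug alone or with a fixed anchor-drug dose plus five library-drug doses (not always all listed) in √10 steps. After 5 days, cells were fixed and their nuclei stained in one step (final 0.05% Triton X-100, 1% formaldehyde, 1 ug/ml Hoechst), then counted on 4× images. Relative viability is the nuclei count in treated wells divided by that in vehicle wells. Values are medians of duplicate plates.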

[2] = compound: CNC(=O)c1ccccc1Sc1ccc2c(/C=C/c3ccccn3)n[nH]c2c1 [Axitinib] + Cc1nc(NC(=O)N2CCC[C@H]2C(N)=O)sc1-c1ccnc(C(C)(C)C(F)(F)F)c1 [Alpelisib] (partner 2 µM)
Outline: as §1

[3] = compound: CC1=CC=C(C=C1)C(=O)CN2C3=C(CCCC3)SC2=N [Pifithrin_alpha] + CS(=O)(=O)N1CCN(Cc2cc3nc(-c4cccc5[nH]ncc45)nc(N4CCOCC4)c3s2)CC1 [Pictilisib] (partner 1 µM)
Outline: as §1

[4] = compound: CC1=CC=C(C=C1)C(=O)CN2C3=C(CCCC3)SC2=N [Pifithrin_alpha] + CC(=O)Nc1cccc(-n2c(=O)n(C3CC3)c(=O)c3c(Nc4ccc(I)cc4F)n(C)c(=O)c(C)c32)c1 [Trametinib] (partner 0.02 µM)
Outline: as §1

| Cell Line | relative viability ([1]; first compound 0.04 µM) | relative viability ([1]; first compound 0.1265 µM) | relative viability ([1]; first compound 0.4 µM) | relative viability ([1]; first compound 1.265 µM) | relative viability ([1]; first compound 4 µM) | relative viability ([2]; first compound 0.005 µM) | relative viability ([2]; first compound 0.01581 µM) | relative viability ([2]; first compound 0.05 µM) | relative viability ([2]; first compound 0.1581 µM) | relative viability ([2]; first compound 0.5 µM) | relative viability ([3]; first compound 1 µM) | relative viability ([3]; first compound 3.162 µM) | relative viability ([3]; first compound 10 µM) | relative viability ([3]; first compound 31.62 µM) | relative viability ([3]; first compound 100 µM) | relative viability ([4]; first compound 1 µM) | relative viability ([4]; first compound 3.162 µM) | relative viability ([4]; first compound 10 µM) | relative viability ([4]; first compound 31.62 µM) | relative viability ([4]; first compound 100 µM) |
| --- | --- | --- | --- | --- | --- | --- | --- | --- | --- | --- | --- | --- | --- | --- | --- | --- | --- | --- | --- | --- |
| NCI-H1666 | 0.572 | 0.675 | 0.564 | 0.564 | 0.635 | 1.12 | 0.918 | 0.942 | 1.05 | 1.1 | 0.351 | 0.296 | 0.277 | 0.238 | 0.293 | 0.8 | 0.737 | 0.791 | 0.706 | 0.494 |
| NCI-H1734 | 0.406 | 0.384 | 0.42 | 0.434 | 0.372 | 0.547 | 0.691 | 0.702 | 0.626 | 0.707 | 0.494 | 0.491 | 0.481 | 0.381 | 0.434 | 0.716 | 0.769 | 0.648 | 0.623 | 0.666 |
| NCI-H1755 | 0.652 | 0.62 | 0.648 | 0.59 | 0.622 | 0.987 | 0.84 | 0.922 | 0.878 | 0.915 | 0.296 | 0.451 | 0.395 | 0.307 | 0.39 | 0.724 | 0.682 | 0.706 | 0.694 | 0.738 |
| NCI-H1792 | 0.293 | 0.293 | 0.326 | 0.193 | 0.248 | 0.797 | 0.715 | 0.671 | 0.699 | 0.683 | 0.156 | 0.244 | 0.205 | 0.178 | 0.217 | 0.498 | 0.389 | 0.432 | – | 0.316 |
| NCI-H1793 | 0.395 | 0.463 | 0.384 | – | 0.336 | 0.667 | 0.701 | 0.722 | 0.73 | 0.676 | 0.251 | 0.388 | 0.436 | 0.341 | 0.323 | 0.419 | 0.371 | 0.365 | 0.496 | 0.437 |
| NCI-H1915 | 0.376 | 0.375 | 0.372 | 0.383 | 0.353 | 1.08 | 1.08 | 1.03 | 1.08 | 1.08 | 0.763 | 0.902 | 0.775 | – | 0.838 | 0.291 | 0.296 | 0.302 | – | 0.308 |
| NCI-H1944 | 0.202 | 0.211 | 0.219 | 0.217 | 0.206 | 0.797 | 0.827 | 0.855 | 0.854 | 0.868 | 0.314 | 0.341 | 0.307 | – | 0.308 | 0.395 | 0.358 | 0.368 | 0.319 | 0.374 |
| NCI-H1975 | 0.405 | 0.428 | 0.428 | 0.437 | 0.417 | 0.777 | 0.73 | 0.766 | 0.667 | 0.74 | 0.232 | 0.18 | 0.187 | 0.193 | 0.18 | 0.251 | 0.29 | 0.232 | 0.275 | 0.252 |
| NCI-H1993 | 0.465 | 0.501 | 0.528 | 0.505 | 0.487 | 0.664 | 0.643 | 0.655 | 0.784 | 0.693 | – | 0.747 | 0.8 | 0.673 | 0.846 | 0.485 | 0.418 | 0.508 | 0.397 | 0.4 |
| NCI-H2009 | 0.497 | 0.544 | 0.489 | 0.466 | 0.418 | 1.21 | 1.2 | 1.13 | 1.2 | 1.29 | 0.658 | 0.78 | 0.816 | 0.365 | 0.594 | 0.26 | 0.265 | 0.253 | 0.218 | 0.234 |
| NCI-H2023 | 0.398 | 0.445 | 0.424 | 0.423 | 0.365 | 0.696 | 0.615 | 0.551 | 0.54 | 0.682 | 0.171 | 0.193 | 0.151 | 0.142 | 0.168 | 0.512 | 0.386 | 0.324 | 0.213 | 0.214 |
| NCI-H2085 | 0.694 | 0.776 | 0.688 | 0.572 | 0.697 | 1.05 | 0.85 | 0.979 | 0.866 | 0.947 | 0.487 | 0.498 | 0.444 | 0.43 | 0.404 | 0.452 | 0.444 | 0.461 | 0.463 | 0.445 |
| NCI-H2087 | 0.435 | 0.481 | 0.52 | 0.492 | 0.487 | 1.18 | 1.04 | 0.993 | 1.07 | 1.22 | 0.74 | 0.872 | 0.894 | 0.453 | 0.757 | 0.178 | 0.196 | 0.169 | 0.183 | 0.165 |
| NCI-H2126 | 0.502 | 0.496 | 0.51 | 0.596 | 0.568 | 0.724 | 0.795 | 0.745 | 0.707 | 0.697 | 0.341 | 0.482 | 0.405 | 0.427 | 0.376 | 0.456 | 0.503 | 0.487 | 0.445 | 0.452 |
| NCI-H2170 | 0.402 | 0.429 | 0.456 | 0.389 | 0.435 | 0.849 | 0.787 | 0.817 | 0.892 | 1.03 | 0.271 | 0.302 | 0.274 | 0.278 | 0.33 | 0.994 | 0.987 | 0.836 | 0.794 | 0.903 |
| NCI-H2228 | 0.157 | 0.329 | 0.395 | 0.346 | 0.295 | 0.884 | 0.699 | 0.798 | 0.677 | 0.964 | 0.516 | 0.352 | 0.434 | 0.294 | 0.303 | 0.611 | 0.482 | 0.499 | 0.384 | 0.436 |
| NCI-H2347 | 0.423 | 0.447 | 0.329 | 0.364 | 0.334 | 1.12 | 1.17 | 1.05 | 1.01 | 1.01 | 0.754 | 0.145 | 0.753 | 0.408 | 0.6 | 0.301 | 0.335 | 0.24 | 0.293 | 0.221 |
| NCI-H2405 | 0.409 | 0.412 | 0.385 | 0.372 | 0.376 | 0.854 | 0.847 | 0.854 | 0.877 | 0.849 | – | 0.39 | 0.427 | 0.403 | 0.292 | – | 0.604 | 0.544 | 0.567 | 0.601 |
| NCI-H3122 | – | 0.412 | 0.366 | 0.358 | 0.381 | 0.753 | 0.719 | 0.843 | 0.711 | 0.792 | 0.628 | 0.596 | 0.577 | 0.563 | 0.732 | 0.254 | 0.296 | 0.25 | 0.213 | 0.286 |
| PC-3 [JPC-3] | 0.477 | 0.454 | 0.473 | 0.497 | 0.448 | 1.09 | – | 1 | 1.04 | 1.12 | 0.547 | 0.757 | 0.629 | 0.569 | 0.597 | – | 0.648 | – | 0.614 | 0.487 |
| PC-14 | 0.458 | 0.704 | 0.648 | 0.581 | 0.465 | 1.02 | 0.931 | 0.94 | 0.893 | 1.05 | 0.764 | 0.674 | 0.645 | 0.495 | 0.563 | 0.731 | 0.654 | 0.547 | 0.319 | 0.383 |
| RERF-LC-KJ | 0.42 | 0.424 | 0.412 | 0.391 | 0.334 | 0.87 | 0.767 | 0.842 | 0.77 | 0.876 | 0.535 | 0.397 | 0.503 | 0.451 | 0.432 | 0.861 | 0.774 | 0.693 | 0.747 | 0.586 |
| SK-LU-1 | 0.521 | 0.633 | 0.485 | 0.548 | 0.6 | 1.11 | 1.32 | 1.05 | 1.06 | 1.63 | 0.523 | 0.526 | 0.615 | 0.451 | 0.45 | 0.561 | 0.494 | 0.43 | 0.42 | 0.48 |
| SK-MES-1 | 0.687 | 0.691 | 0.652 | 0.758 | 0.667 | 0.981 | 0.974 | 1.04 | 0.943 | 1.12 | 0.392 | 0.32 | 0.33 | 0.293 | 0.237 | 0.593 | 0.518 | 0.462 | 0.36 | 0.403 |
| SW 1573 | 0.415 | 0.373 | 0.363 | 0.368 | 0.365 | 0.766 | 0.954 | 0.783 | 0.774 | 0.738 | 0.596 | 0.595 | 0.59 | 0.438 | 0.491 | – | 0.619 | 0.567 | 0.341 | 0.31 |
| UMC-11 | 0.324 | 0.355 | 0.365 | 0.314 | 0.312 | 1.08 | 0.871 | 0.959 | 1.03 | 1.16 | 0.775 | 0.802 | 0.888 | 0.604 | 1.03 | 0.73 | 0.715 | 0.719 | 0.657 | 0.87 |

Reference: the supplement of paper PMC10307832
